Data as given in PMC8929358 (Pharmacology Research & Perspectives, 2021).

Columns and labels:
[1] = Sulfate conjugation of opicapone in human liver S9; format: in vitro ADME; conditions: human liver S9 fraction (HLS9), pH 7.4
[2] = format: in vivo, rat; conditions: rat, plasma, po, 1 g/kg
UGT 1A1 = target: T1, UGT 1A1 (Homo sapiens, UniProt P22309); assay: Glucuronidation of opicapone by recombinant UGT1A1; format: in vitro ADME; conditions: 20 μM opicapone
T1 sequence (P22309 26-533): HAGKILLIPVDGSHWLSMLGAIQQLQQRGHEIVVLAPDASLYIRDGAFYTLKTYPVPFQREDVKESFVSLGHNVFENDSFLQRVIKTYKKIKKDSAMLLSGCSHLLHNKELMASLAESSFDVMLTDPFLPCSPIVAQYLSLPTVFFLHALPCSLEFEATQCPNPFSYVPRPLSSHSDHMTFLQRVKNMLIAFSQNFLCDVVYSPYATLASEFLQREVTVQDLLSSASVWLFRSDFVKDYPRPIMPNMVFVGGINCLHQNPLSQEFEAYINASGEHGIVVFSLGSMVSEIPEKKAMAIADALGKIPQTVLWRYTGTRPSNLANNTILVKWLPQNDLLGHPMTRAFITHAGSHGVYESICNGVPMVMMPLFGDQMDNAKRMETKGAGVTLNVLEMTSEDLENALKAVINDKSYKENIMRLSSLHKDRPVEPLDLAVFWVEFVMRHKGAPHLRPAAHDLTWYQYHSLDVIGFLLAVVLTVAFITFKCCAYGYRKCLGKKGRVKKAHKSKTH

UGT 2B7 = target: T2, UGT 2B7 (Homo sapiens, UniProt P16662); assay: Glucuronidation of opicapone by recombinant UGT2B7; format: in vitro ADME; conditions: 20 μM opicapone
T2 sequence (P16662 24-529): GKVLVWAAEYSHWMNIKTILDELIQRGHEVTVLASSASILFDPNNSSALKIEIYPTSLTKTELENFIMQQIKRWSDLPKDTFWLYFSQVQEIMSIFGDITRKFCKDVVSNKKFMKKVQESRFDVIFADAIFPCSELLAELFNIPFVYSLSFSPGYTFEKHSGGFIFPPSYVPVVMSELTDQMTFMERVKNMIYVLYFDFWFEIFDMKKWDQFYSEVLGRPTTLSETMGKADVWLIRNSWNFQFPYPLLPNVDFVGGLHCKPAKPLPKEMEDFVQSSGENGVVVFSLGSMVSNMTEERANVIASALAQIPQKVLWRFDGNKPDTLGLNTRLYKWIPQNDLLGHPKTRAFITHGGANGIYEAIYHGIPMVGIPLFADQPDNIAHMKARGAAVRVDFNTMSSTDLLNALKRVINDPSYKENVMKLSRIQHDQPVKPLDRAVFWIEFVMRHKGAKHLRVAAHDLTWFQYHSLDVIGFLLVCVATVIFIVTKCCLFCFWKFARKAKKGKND

UGT 1A3 = target: T3, UGT 1A3 (Homo sapiens, UniProt P35503); assay: Glucuronidation of opicapone by recombinant UGT1A3; format: in vitro ADME; conditions: 20 μM opicapone
T3 sequence (P35503 29-534): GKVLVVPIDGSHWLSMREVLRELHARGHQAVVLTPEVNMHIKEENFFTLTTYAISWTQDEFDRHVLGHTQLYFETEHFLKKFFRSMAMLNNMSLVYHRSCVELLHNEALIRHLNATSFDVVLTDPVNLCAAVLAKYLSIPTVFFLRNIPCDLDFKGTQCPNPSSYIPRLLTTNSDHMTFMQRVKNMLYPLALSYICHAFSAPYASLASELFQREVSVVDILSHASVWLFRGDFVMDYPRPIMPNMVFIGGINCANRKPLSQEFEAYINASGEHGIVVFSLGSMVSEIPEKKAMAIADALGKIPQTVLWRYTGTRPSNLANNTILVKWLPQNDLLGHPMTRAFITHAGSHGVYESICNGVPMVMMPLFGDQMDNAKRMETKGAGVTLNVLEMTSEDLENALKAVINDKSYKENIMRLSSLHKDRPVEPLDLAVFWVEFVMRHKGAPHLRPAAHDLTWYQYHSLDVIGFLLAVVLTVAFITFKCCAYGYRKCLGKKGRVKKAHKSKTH

[3] = Sulfate conjugation of opicapone in human intestinal S9; format: in vitro ADME; conditions: human intestinal S9 fraction (HIS9), pH 7.4
UGT 2B17 = target: T4, UGT 2B17 (Homo sapiens, UniProt O75795); assay: Glucuronidation of opicapone by recombinant UGT2B17; format: in vitro ADME; conditions: 20 μM opicapone; incubation period of 60 min
T4 sequence (O75795 24-530): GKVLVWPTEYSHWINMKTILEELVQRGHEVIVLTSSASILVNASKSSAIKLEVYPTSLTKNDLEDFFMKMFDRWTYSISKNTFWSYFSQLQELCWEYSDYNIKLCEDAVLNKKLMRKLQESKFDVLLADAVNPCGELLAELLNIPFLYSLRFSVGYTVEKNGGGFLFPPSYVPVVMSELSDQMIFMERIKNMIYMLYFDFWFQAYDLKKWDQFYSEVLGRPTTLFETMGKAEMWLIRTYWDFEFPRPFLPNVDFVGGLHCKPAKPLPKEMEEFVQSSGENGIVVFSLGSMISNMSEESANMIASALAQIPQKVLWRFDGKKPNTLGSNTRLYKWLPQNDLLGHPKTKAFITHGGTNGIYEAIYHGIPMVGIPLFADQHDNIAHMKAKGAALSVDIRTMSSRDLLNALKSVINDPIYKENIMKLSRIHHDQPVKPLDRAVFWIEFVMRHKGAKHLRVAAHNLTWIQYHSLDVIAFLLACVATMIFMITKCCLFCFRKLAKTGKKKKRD

[4] = Glucuronidation of opicapone in human liver microsomes; format: in vitro ADME; conditions: human liver microsomes (HLM), pH 7.5

Km [1]: 20.5 ± 2.6 µM
Cmax [2]: 7090 ng/mL
Formation of BIA 9-1106 (screening) (UGT 1A1): little amounts
Formation of BIA 9-1106 (screening) (UGT 2B7): little amounts
Formation of BIA 9-1106 (screening) (UGT 1A3): little amounts
Km [3]: 8.2 ± 1.1 µM
Metabolite formation (screening) (UGT 2B17): No metabolite formation was detected
Km [4]: 27.9 ± 6.4 µM
Structure (SMILES): Cc1c(Cl)c(C)[n+]([O-])c(Cl)c1-c1noc(-c2cc(O)c(O)c([N+](=O)[O-])c2)n1 [opicapone, 2,5‐dichloro‐3‐(5‐(3,4‐dihydroxy‐5‐nitrophenyl)‐1,2,4‐oxadiazol‐3‐yl)‐4,6‐dimethylpyridine 1‐oxide]
